Reference: ChEMBL document CHEMBL4184172, “Isosteric ribavirin analogues: Synthesis and antiviral activities” (Bioorg Med Chem Lett, 2018)
In brackets after ≈: the same amount, converted by molar mass. Activity calls are given as the source filed them. The rule behind the calls is not given here.

Columns and labels:
[1] = test system: Vero C1008; assay: Cytotoxicity against African green monkey Vero E6 cells assessed as alterations in cell morphology at 1000 ug/ml by microscopic analysis; format: cell-based; conditions: chlorocebus sabaeus
[2] = Cytotoxicity against pig SPEV cells at 150 ug/ml by microscopic analysis; format: cell-based, Sus scrofa
[3] = test system: Influenza A virus; assay: Antiviral activity against Influenza A virus H5N1 (A/duck/Novosibirsk/56/2005) infected in pig SPEV cells assessed as protection against virus-induced cytopathic effect; format: functional, organism-based, Influenza A virus (A/duck/Novosibirsk/56/2005(H5N1)); conditions: for Activity: Influenza A virus (A/duck/Novosibirsk/56/2005(H5N1))
[4] = test system: Human alphaherpesvirus 1; assay: Antiviral activity against Human herpesvirus 1 L2 infected in African green monkey Vero E6 cells assessed as protection against virus-induced cytopathic effect; format: functional, organism-based; conditions: Human alphaherpesvirus 1, L2, Vero C1008
[5] = Cytotoxicity against African green monkey Vero E6 cells assessed as alterations in cell morphology by microscopic analysis; format: cell-based, Vero C1008; conditions: chlorocebus sabaeus
[6] = test system: Hepatitis C virus; assay: Antiviral activity against Hepatitis C virus infected in pig SPEV cells assessed as protection against virus-induced cytopathic effect; format: functional, organism-based, Hepacivirus hominis
[7] = Cytotoxicity against pig SPEV cells by microscopic analysis; format: cell-based, Sus scrofa

Compound	Activity [1]	Activity [2]	IC50 [3] [µg/mL]	Activity [3]	IC50 [4] [µg/mL]	CC50 [5] [µg/mL]	IC50 [6] [µg/mL]	CC50 [7] [µg/mL]
Cc1nc(-c2ncn([C@@H]3O[C@H](CO)[C@@H](O)[C@H]3O)n2)no1	Non-Toxic	Non-Toxic	50 (≈ 177 µM)	–	–	–	–	–
Cc1nc(-c2ncn([C@H]3C[C@H](O)[C@@H](CO)O3)n2)no1	Non-Toxic	Non-Toxic	–	inactive	–	–	–	–
OC[C@H]1O[C@@H](n2cnc(-c3ncon3)n2)[C@H](O)[C@@H]1O	Non-Toxic	Non-Toxic	–	–	250 (≈ 929 µM)	–	–	–
OC[C@H]1O[C@@H](n2cnc(-c3noc(-c4ccccc4)n3)n2)[C@H](O)[C@@H]1O	Non-Toxic	Non-Toxic	–	–	–	380 (≈ 1100 µM)	8.8 (≈ 25.5 µM)	–
NC(=O)c1ncn([C@@H]2O[C@H](CO)[C@@H](O)[C@H]2O)n1 [RIBAVIRIN]	–	–	12.5 (≈ 51.2 µM)	–	–	–	12.5 (≈ 51.2 µM)	75 (≈ 307 µM)
CC(C)c1nc(-c2ncn([C@@H]3O[C@H](CO)[C@@H](O)[C@H]3O)n2)no1	Non-Toxic	Non-Toxic	–	inactive	–	–	–	–
